The text below walks through data of patent publication US20260085073A1, “PYRAZOLYLCARBOXAMIDE COMPOUNDS AND THEIR USE IN THERAPY” (Hotspot Therapeutics, Inc., priority 2022, published 2026).

The target in the assay is T1, MALT1 (Homo sapiens, UniProt Q9UDY8).
T1 construct: Avi-tagged FL MALT-1 (Pharmaron, stored at −70° C.); Avi-tag
T1 sequence (Q9UDY8 1-824): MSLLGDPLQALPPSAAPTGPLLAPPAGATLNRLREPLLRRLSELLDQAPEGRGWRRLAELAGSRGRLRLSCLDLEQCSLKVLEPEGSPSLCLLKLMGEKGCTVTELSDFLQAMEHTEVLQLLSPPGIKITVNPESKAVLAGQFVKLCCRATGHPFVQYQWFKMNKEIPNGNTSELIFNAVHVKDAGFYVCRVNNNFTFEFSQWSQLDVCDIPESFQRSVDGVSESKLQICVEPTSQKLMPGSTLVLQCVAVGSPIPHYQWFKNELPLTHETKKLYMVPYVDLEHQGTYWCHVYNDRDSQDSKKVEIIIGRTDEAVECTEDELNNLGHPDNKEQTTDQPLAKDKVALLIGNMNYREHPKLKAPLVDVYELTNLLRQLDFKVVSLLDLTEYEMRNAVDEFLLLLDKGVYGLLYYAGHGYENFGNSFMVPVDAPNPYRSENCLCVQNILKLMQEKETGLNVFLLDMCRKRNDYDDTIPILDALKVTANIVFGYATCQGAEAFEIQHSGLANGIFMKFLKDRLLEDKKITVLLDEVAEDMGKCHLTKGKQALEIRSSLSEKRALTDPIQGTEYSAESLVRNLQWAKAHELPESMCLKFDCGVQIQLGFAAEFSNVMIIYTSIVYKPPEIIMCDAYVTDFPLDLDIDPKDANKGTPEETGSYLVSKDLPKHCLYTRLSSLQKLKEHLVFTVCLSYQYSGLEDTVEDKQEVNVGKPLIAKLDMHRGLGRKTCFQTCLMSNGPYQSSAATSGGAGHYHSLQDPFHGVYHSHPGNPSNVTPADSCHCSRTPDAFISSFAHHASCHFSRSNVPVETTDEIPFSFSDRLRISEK
Briefly: MALT1 inhibition assay (MALT-1 Fluorogenic Peptide Cleavage Assay, Ac-LRSR-AMC substrate). It counts as biochemical. The note with it: Avi-tagged FL MALT-1, 30 min pre-incubation, 90 min reaction at room temperature, fluorescence intensity. In a few lines:
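Full-length Avi-tagged MALT1 pre-incubated 30 min at room temperature with compounds (2% DMSO final) in HEPES pH 6.89, sodium citrate, TCEP, EDTA, CHAPS buffer. Ac-LRSR-AMC added from 50 µM (Km) or […] working stocks; 90 min at room temperature, AMC fluorescence (ex 342/em 441 nm); IC50 from % inhibition curves.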

pIC50: −log10 of the molar value. A value given as a limit tells only on which side of the number the result lay.

As for `Cn1nc(-c2cccc3ncccc23)c(C(F)(F)F)c1C(=O)Nc1ccnc(C(F)(F)F)c1` [Compound I-39], the pIC50 was 5.60 to 6.30. `Cn1nc(-c2c[nH]c3ncccc23)c(C(F)(F)F)c1C(=O)Nc1ccnc(C(F)(F)F)c1` [Compound I-6]: the pIC50 was greater than 6.30. The molecule `Cc1cncc(-c2nn(C)c(C(=O)Nc3ccnc(C(F)(F)F)c3)c2C(F)(F)F)c1` [Compound I-80] showed a pIC50 of less than 5.00. For `Cn1nc(-c2cnc(N)c3ccccc23)c(C(F)(F)F)c1C(=O)Nc1ccnc(C(F)(F)F)c1` [Compound I-77] the value was 5.60 to 6.30; for `Cn1nc(-c2cccc3[nH]ncc23)c(C(F)(F)F)c1C(=O)Nc1ccnc(C(F)(F)F)c1` [Compound I-46], 5.60 to 6.30; for `COc1cc(NC(=O)c2c(C(F)(F)F)c(-c3ccccc3)nn2C)ccn1` [Compound I-287], less than 5.00. Take `Cn1nc(C(=O)Nc2ccnc(C(F)(F)F)c2)c2c1-c1ccccc1CCC2` [Compound I-253]: the pIC50 is less than 5.00. The molecule `Cn1nc(-c2cccn3nccc23)c(C(F)(F)F)c1C(=O)Nc1ccnc(C(F)(F)F)c1` [Compound I-87] had a pIC50 greater than 6.30.

The molecule `Cn1nc(-c2cccc3nscc23)c(C(F)(F)F)c1C(=O)Nc1ccnc(C(F)(F)F)c1` [Compound I-210, 3-(benzo[c]isothiazol-4-yl)-1-methyl-4-(trifluoromethyl)-N-(2-(trifluoromethyl)pyridin-4-yl)-1H-pyrazole-5-carboxamide] gave a negative logarithm of the IC50 (pIC50) greater than 6.30.

For the molecule `Cn1nc(-c2ccc(Cl)c3nccn23)c(C(F)(F)F)c1C(=O)Nc1ccnc(C(F)(F)F)c1` [Compound I-248], the pIC50 was less than 5.00. Regarding `O=C(Nc1cnc(-n2nccn2)c(Cl)c1)c1nn(C2CC2)c(-c2ccccc2)c1C(F)(F)F` [Compound I-191], the pIC50 is 5.60 to 6.30. Consider `COc1ccccc1-c1nn(C)c(C(=O)Nc2ccnc(C(F)(F)F)c2)c1C(F)(F)F` [Compound I-88], for which the pIC50 was greater than 6.30. For `CN(C)c1nc2cccc(-c3nn(C)c(C(=O)Nc4ccnc(C(F)(F)F)c4)c3C(F)(F)F)c2s1` [Compound I-292] the value was less than 5.00. In turn, `Cn1nc(-c2cnn3c2OCCC3)c(C(F)(F)F)c1C(=O)Nc1ccnc(C(F)(F)F)c1` [Compound I-26] gave a pIC50 of less than 5.00. As to `Cn1nc(-c2csc3cnccc23)c(C(F)(F)F)c1C(=O)Nc1cnc(-n2nccn2)c(C(F)(F)F)c1` [Compound I-120, N-(6-(2H-1,2,3-triazol-2-yl)-5-(trifluoromethyl)pyridin-3-yl)-1-methyl-3-(thieno[2,3-c]pyridin-3-yl)-4-(trifluoromethyl)-1H-pyrazole-5-carboxamide], the pIC50 is greater than 6.30.

On to `Cn1nc(-c2c(F)ccc3ncsc23)c(C(F)(F)F)c1C(=O)Nc1ccnc(C(F)(F)F)c1` [Compound I-280], for which the pIC50 is greater than 6.30. In the case of `O=C(Nc1cnc(-n2nccn2)c(Cl)c1)c1c(C(F)(F)F)c(-c2ccccc2)nn1CCO` [Compound I-211, N-(5-chloro-6-(2H-1,2,3-triazol-2-yl)pyridin-3-yl)-1-(2-hydroxyethyl)-3-phenyl-4-(trifluoromethyl)-1H-pyrazole-5-carboxamide], the pIC50 was 5.00 to 5.60. Consider `Cn1nc(-c2ccccc2)c(C(F)(F)F)c1C(=O)Nc1cc(C(F)(F)F)ccn1` [Compound I-138], for which the pIC50 is 5.60 to 6.30. As for `Cn1nc(-c2cccc3ncsc23)c(C(F)(F)F)c1C(=O)Nc1cnc(-n2nccn2)c(C(F)(F)F)c1` [Compound I-125], the pIC50 was greater than 6.30. Consider `Cn1nc(-c2cccc3c(=O)[nH]ccc23)c(C(F)(F)F)c1C(=O)Nc1ccnc(C(F)(F)F)c1` [Compound I-63], for which the pIC50 is greater than 6.30. On to `Cn1nc(-c2cccc3c2CCNC3=O)c(C(F)(F)F)c1C(=O)Nc1ccnc(C(F)(F)F)c1` [Compound I-3], for which the negative-log IC50 (pIC50) is 5.00 to 5.60. As for `Cn1nc(-c2cnc3ccccn23)c(C(F)(F)F)c1C(=O)Nc1ccnc(C(F)(F)F)c1` [Compound I-195, 3-(imidazo[1,2-a]pyridin-3-yl)-1-methyl-4-(trifluoromethyl)-N-(2-(trifluoromethyl)pyridin-4-yl)-1H-pyrazole-5-carboxamide], the pIC50 was less than 5.00. In turn, `Cn1nc(Cc2ccccc2)c(C(F)(F)F)c1C(=O)Nc1cnc(-n2nccn2)c(Cl)c1` [Compound I-143] had a pIC50 of 5.60 to 6.30. Under `Cn1nc(-c2cccn(C)c2=O)c(C(F)(F)F)c1C(=O)Nc1ccnc(C(F)(F)F)c1` [Compound I-48] stands less than 5.00. As to `CCn1nc(C(=O)Nc2cnc(-n3nccn3)c(Cl)c2)c(C(F)(F)F)c1-c1ccccc1` [Compound I-168], the pIC50 is greater than 6.30.

Molecule `Cn1nc(-c2cccc3c2NCCO3)c(C(F)(F)F)c1C(=O)Nc1ccnc(C(F)(F)F)c1` [Compound I-54] had a pIC50 of 5.60 to 6.30. With `Cn1nc(-c2ccnc3ccoc23)c(C(F)(F)F)c1C(=O)Nc1ccnc(C(F)(F)F)c1` [Compound I-14], the negative-log IC50 (pIC50) is greater than 6.30. As for `CN1Cc2c(cccc2-c2nn(C)c(C(=O)Nc3ccnc(C(F)(F)F)c3)c2C(F)(F)F)C1=O` [Compound I-98], the pIC50 is less than 5.00.

In the case of `Cn1nc(-c2ccnc3c2OCO3)c(C(F)(F)F)c1C(=O)Nc1ccnc(C(F)(F)F)c1` [Compound I-72], the pIC50 is 5.60 to 6.30. For `Cn1nc(-c2cccc3nccn23)c(C(F)(F)F)c1C(=O)Nc1ccnc(C2CC2)c1` [Compound I-227, N-(2-cyclopropylpyridin-4-yl)-3-(imidazo[1,2-a]pyridin-5-yl)-1-methyl-4-(trifluoromethyl)-1H-pyrazole-5-carboxamide] the value was 5.00 to 5.60; for `Cn1nc(-c2ccccc2)c(C(F)(F)F)c1C(=O)Nc1cnc(-n2nccn2)c(Cl)c1` [Compound I-152], greater than 6.30; for `COCCn1cc(-c2nn(C)c(C(=O)Nc3ccnc(C(F)(F)F)c3)c2C(F)(F)F)c2ccncc21` [Compound I-108], less than 5.00. Turning to `[2H]C([2H])([2H])n1nc(C(=O)Nc2cnc(-n3nccn3)c(Cl)c2)c(C(F)(F)F)c1-c1ccccc1` [Compound I-166], the pIC50 was greater than 6.30. For `Cn1nc(-c2ccccc2)c(C(F)(F)F)c1C(=O)Nc1cnc(-n2nccn2)c(C(F)(F)F)c1` [Compound I-151] the value was greater than 6.30; for `O=C(Nc1cnc(-n2nccn2)c(C(F)(F)F)c1)c1c(C(F)(F)F)c(-c2ccccc2)nn1C1CC1` [Compound I-190], 5.60 to 6.30; for `Cn1nc(-c2cccc3c(=O)[nH]cnc23)c(C(F)(F)F)c1C(=O)Nc1ccnc(C(F)(F)F)c1` [Compound I-187, 1-methyl-3-(4-oxo-3,4-dihydroquinazolin-8-yl)-4-(trifluoromethyl)-N-(2-(trifluoromethyl)pyridin-4-yl)-1H-pyrazole-5-carboxamide], 5.00 to 5.60. Molecule `COc1ncc(NC(=O)c2c(C(F)(F)F)c(-c3cccc4ccoc34)nn2C)cc1C#N` [Compound I-156] gave a pIC50 greater than 6.30.

On to `COc1cccc(OC)c1-c1nn(C)c(C(=O)Nc2ccnc(C(F)(F)F)c2)c1C(F)(F)F` [Compound I-20], for which the pIC50 was 5.60 to 6.30.

The molecule `Cc1coc2c(-c3nn(C)c(C(=O)Nc4ccnc(C(F)(F)F)c4)c3C(F)(F)F)cccc12` [Compound I-84] showed a pIC50 of 5.60 to 6.30. Take `COc1ccc2ncsc2c1-c1nn(C)c(C(=O)Nc2ccnc(C(F)(F)F)c2)c1C(F)(F)F` [Compound I-232]: the pIC50 was greater than 6.30.

The molecule `Cc1ncccc1-c1nn(C)c(C(=O)Nc2ccnc(C(F)(F)F)c2)c1C(F)(F)F` [Compound I-79] had a pIC50 of 5.00 to 5.60. In the case of `Cn1nc(C(=O)Nc2ccnc(C(F)(F)F)c2)c(C2CC2)c1-c1ccccc1` [Compound I-204, 4-cyclopropyl-1-methyl-5-phenyl-N-(2-(trifluoromethyl)pyridin-4-yl)-1H-pyrazole-3-carboxamide], the pIC50 is 5.00 to 5.60. `Cn1nc(-c2nccc3ccccc23)c(C(F)(F)F)c1C(=O)Nc1ccnc(C(F)(F)F)c1` [Compound I-105, 3-(isoquinolin-1-yl)-1-methyl-4-(trifluoromethyl)-N-(2-(trifluoromethyl)pyridin-4-yl)-1H-pyrazole-5-carboxamide]: the pIC50 is 5.60 to 6.30. `Cn1nc(-c2cccc3ncn(C4CC4)c23)cc1C(=O)Nc1ccnc(C(F)(F)F)c1` [Compound I-123] showed a pIC50 of less than 5.00. Take `COc1cccc(-c2nn(C)c(C(=O)Nc3ccnc(C(F)(F)F)c3)c2C(F)(F)F)c1Cl` [Compound I-68]: the pIC50 was 5.60 to 6.30. As to `Cn1nc(-c2cccc3ncsc23)c(C(F)(F)F)c1C(=O)Nc1ccnc(C2CC2)c1` [Compound I-282], the negative-log IC50 (pIC50) is less than 5.00. In turn, `Cn1nc(-c2cccc3ocnc23)c(C(F)(F)F)c1C(=O)Nc1ccnc(C(F)(F)F)c1` [Compound I-9] gave a pIC50 greater than 6.30.

Broadly, the pIC50 is the IC50 on a negative log10 scale, so that one unit is a factor of ten.
